Experimental data reported in patent US12084462B2, “Spiro bicyclic inhibitors of menin-MLL interaction” (Janssen Pharmaceutica NV, priority 2016, dated 2024).
Values joined by “and” are separate entries in the source; they are usually repeats but may differ in a detail not shown here. Identical values can stand only once. Like-named read-outs stand apart in the source and are kept apart here.

Legend:
MV-4-11 = assay: Proliferation assay (spheroid assay) MV-4-11; format: cell-based, human
Experimental: (§1) The anti-proliferative effect of menin/MLL protein/protein interaction inhibitor test compounds was assessed in human leukemia cell lines. The cell lines MV-4-11 and MOLM14 harbor MLL translocations and express the MLL fusion proteins MLL-AF4 and MLL-AF9, respectively, as well as the wildtype protein from the second allele. […] K562 and KG1 were used as a control cell lines containing two MLL wildtype alleles in order to exclude compounds that display general cytotoxic effects.
(§2) MV-4-11 and MOLM14 were cultured in RPMI-1640 (Sigma Aldrich) supplemented with 10% fetal bovine serum (HyClone), 2 mM L-glutamine (Sigma Aldrich) and 50 μg/ml gentamycin (Gibco). K562 were propagated in RPMI-1640 (Sigma Aldrich) supplemented with 20% fetal bovine serum (HyClone), 2 mM L-glutamine (Sigma Aldrich) and 50 μg/ml gentamycin (Gibco). KG1 were cultured in Iscove's MDM (Gibco) supplemented with 20% fetal bovine serum (HyClone), 2 mM L-glutamine (Sigma Aldrich) and 50 μg/ml gentamycin (Gibco).
(§3) In order to assess the anti-proliferative effects, 1,500 MV-4-11, 300 MOLM14, 750 K562 or 1,300 KG1 cells were seeded in 200 μl media per well in 96-well round bottom, ultra-low attachment plates (Costar, catalogue number 7007). Cell seeding numbers were chosen based on growth curves to ensure linear growth throughout the experiment. Test compounds were added at different concentrations and the DMSO content was normalized to 0.3%. Cells were incubated for 8 d at 37° C. and 5% CO2. Spheroid like growth was monitored in real-time by live-cell imaging (IncuCyteZOOM, Essenbio, 4× objective) acquiring one image every four hours for 8 d. Confluence (%) as a measure of spheroid size was determined using an integrated analysis tool.
(§4) In order to determine the cumulative effect of the test compounds over time, the area under the curve (AUC) in a plot of confluence against time was calculated. Confluence at the beginning of the experiment (t=0) was used as baseline for the AUC calculation.
(§5) Absolute IC50 values were calculated according to the following procedure: % Control=(AUC sample/AUC control)*100 AUC control=mean AUC of control values (cells without compound/DMSO as vehicle control)
(§6) A non-linear curve fit was applied using the least squares (ordinary) fit method to the plot of % control versus compound concentration. Based on this, the absolute IC50 value (half maximal inhibitory concentration of the test compound causing an anti-proliferative effect of 50% relative to the vehicle control) was calculated.

MOLM14 = assay: Proliferation assay (spheroid assay) MOLM14; format: cell-based, human
Experimental: as §1, §2, §3, §4, §5, §6

menin = target: T1, menin (Homo sapiens, UniProt O00255, T541A); assay: Menin/MLL fluorescence polarization (FP) assay; format: binding
T1 sequence (O00255 with tags, fused parts or gaps T541A): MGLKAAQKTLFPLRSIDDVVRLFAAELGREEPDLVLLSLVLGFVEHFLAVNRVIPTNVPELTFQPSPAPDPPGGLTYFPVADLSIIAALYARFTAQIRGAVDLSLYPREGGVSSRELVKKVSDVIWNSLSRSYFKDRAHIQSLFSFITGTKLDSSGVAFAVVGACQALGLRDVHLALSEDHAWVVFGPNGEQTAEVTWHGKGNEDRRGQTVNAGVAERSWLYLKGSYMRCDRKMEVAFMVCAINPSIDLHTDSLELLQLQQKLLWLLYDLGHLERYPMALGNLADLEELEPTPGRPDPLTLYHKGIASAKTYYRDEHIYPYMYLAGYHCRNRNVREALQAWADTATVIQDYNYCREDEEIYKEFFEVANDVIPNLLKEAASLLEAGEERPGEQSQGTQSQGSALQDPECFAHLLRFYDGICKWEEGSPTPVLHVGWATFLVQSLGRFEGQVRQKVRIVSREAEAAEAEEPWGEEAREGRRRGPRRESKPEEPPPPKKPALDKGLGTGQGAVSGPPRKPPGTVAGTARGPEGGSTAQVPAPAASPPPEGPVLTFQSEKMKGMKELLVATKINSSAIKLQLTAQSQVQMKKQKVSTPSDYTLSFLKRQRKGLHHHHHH
Experimental: 1) Menin/MLL Fluorescence Polarization Assay
To a non-surface binding, black 384-well microtiter plate was added 50 nL 160× test compound in DMSO and 4 μL 2× menin in assay buffer (40 mM Tris·HCl, pH 7.5, 50 mM NaCl, 1 mM DTT and 0.001% Tween 20). After incubation of test compound and menin for 10 min at ambient temperature, 4 μL 2×FITC-MBM1 peptide (FITC-β-alanine-SARWRFPARPGT-NH2 (SEQ ID NO: 2)) in assay buffer was added, the microtiter plate centrifuged at 1000 rpm for 1 min and the assay mixtures incubated for 15 min at ambient temperature. The relative amount of menin·FITC-MBM1 complex present in an assay mixture is determined by measuring the fluorescence polarization (FP) of the FITC label with a BMG Pherastar plate reader (ex. 485 nm/em. 520 nm) at ambient temperature. The final concentrations of reagents in the binding assay are 100 nM menin, 5 nM FITC-MBM1 peptide and 0.625% DMSO in assay buffer. Dose-response titrations of test compounds are conducted using an 11 point, three-fold serial dilution scheme, starting at 31 μM.
Compound potencies were determined by first calculating % inhibition at each compound concentration according to equation 1: % inhibition=((HC−LC)−(FP^compound−LC))/(HC−LC))*100 (Eqn 1)
Where LC and HC are the FP values of the assay in the presence or absence of a saturating concentration of a compound that competes with FITC-MBM1 for binding to menin, and FP^compound is the measured FP value in the presence of the test compound. HC and LC FP values represent an average of at least 16 replicates per plate. […] 2) Proliferation Assay

[1] = Homo sapiens, MV4-11, MV-4-11, averaged values, read-out: Spheroid assay MV-4-11 (IC50 (μM))
[2] = Homo sapiens, MOLM-14, MOLM14, averaged values, read-out: Spheroid assay MOLM14 (IC50 (μM))
[3] = averaged values over all measurements, read-out: Menin FP assay (IC50 (μM))
[4] = 100 nM menin, 5 nM FITC-MBM1 peptide, individual measurements (not averaged), read-out: (1) Menin FP assay (IC50 (μM))
[5] = MOLM14 (MLL-AF9), 8 d, absolute IC50 from AUC of confluence, individual measurements (not averaged), read-out: (2) Spheroid assay MOLM14 (IC50 (μM))

Row | SMILES | IC50 (MV-4-11; [1]) [µM] | IC50 (MOLM14; [2]) [µM] | IC50 (menin; [3]) [µM] | other results
1 | Cc1ccc(CN2CC[C@@]3(CCN(c4ncnc5sc(CC(F)(F)F)cc45)C3)C2)cc1 (single isomer, unassigned) [Compound 289] | 0.21 | 1.3 | – | –
2 | Cc1ccc(CN2CC[C@]3(CCN(c4ncnc5sc(CC(F)(F)F)cc45)C3)C2)cc1 (single isomer, unassigned) [Compound 290] | 0.47 | 1.2 | – | –
3 | FC(F)(F)Cc1cc2c(N3CCC4(CN(Cc5ccnnc5)C4)C3)ncnc2s1 [Compound 4] | – | – | 0.73 | –
4 | FC(F)(F)Cc1cc2c(N3CCC4(CN(Cc5cnc6ccccn56)C4)C3)ncnc2s1 [Compound 7] | – | – | 0.73 | –
5 | FC(F)(F)Cc1cc2c(N3CCC4(CN(Cc5cnc(Cl)cn5)C4)C3)ncnc2s1 [Compound 8] | – | – | 0.79 | –
6 | FC(F)(F)Cc1cc2c(N3CCC4(CN(Cc5ccncn5)C4)C3)ncnc2s1 [Compound 9] | – | – | 0.84 | –
7 | FC(F)(F)Cc1cc2c(N3CCC4(CN(Cc5cncnc5)C4)C3)ncnc2s1 [Compound 10] | – | – | 2.31 | –
8 | FC(F)(F)Cc1cc2c(N3CC4(CN(Cc5ccccc5)C4)C3)ncnc2s1 [Compound 14] | 2.2 | 4.9 | 0.11 | –
9 | Cn1cncc1CN1CC2(CCN(c3ncnc4sc(CC(F)(F)F)cc34)C2)C1 [Compound 23] | – | – | 0.95 | –
10 | OCCn1cccc1CN1CC2(CCN(c3ncnc4sc(CC(F)(F)F)cc34)C2)C1 [Compound 24] | 9.1 | > 15 | 0.49 | –
11 | FC(F)(F)Cc1cc2c(N3CC4(CC(OCc5ccccc5)C4)C3)ncnc2s1 [Compound 26] | 10.4 | > 15 | 0.16 | –
12 | Cn1cc(CN2CC3(C2)CN(c2ncnc4sc(CC(F)(F)F)cc24)C3)cn1 [Compound 28] | – | – | – | IC50 (menin; [4]): 0.517 µM; IC50 (MOLM14; [5]): 3.2 µM and > 15 µM
13 | FC(F)(F)Cc1cc2c(N3CCC4(CN(Cc5cn[nH]c5)C4)C3)ncnc2s1 [Compound 29] | – | – | – | IC50 (menin; [4]): 0.346 µM; IC50 (MV-4-11; MV-4-11 (MLL-AF4), 8 d, absolute IC50 from AUC of confluence, individual measurements (not averaged), read-out: (2) Spheroid assay MV-4-11 (IC50 (μM))): 1.8 µM and > 15 µM and 9.9 µM; IC50 (MOLM14; Homo sapiens, MOLM-14, 192 h, MOLM14 (MLL-AF9), 8 d, absolute IC50 from AUC of confluence, individual measurements (not averaged), read-out: (2) Spheroid assay MOLM14 (IC50 (μM))): 10.8 µM; IC50 (MOLM14; [5]): > 15 µM
14 | Cn1cc(CN2CC3(CCN(c4ncnc5sc(CC(F)(F)F)cc45)C3)C2)cn1 [Compound 30] | 9.2 | > 15 | 0.53 | –
15 | [CH3][Ge]([CH3])([CH3])[CH2]N1CC2(CCN(c3ncnc4sc(CC(F)(F)F)cc34)C2)C1 [Compound 31] | – | – | 0.087 | –
16 | Cn1ccc(CN2CC3(C2)CN(c2ncnc4sc(CC(F)(F)F)cc24)C3)n1 [Compound 34] | – | – | 0.72 | –
17 | NCCCOc1cccc(CN2CC3(CCN(c4ncnc5sc(CC(F)(F)F)cc45)C3)C2)c1 [Compound 37] | 1.5 | 3.1 | 0.17 | –
18 | CC(C)CN1CC2(C1)CN(c1ncnc3sc(CC(F)(F)F)cc13)C2 [Compound 44] | 4.1 | > 15 | – | –
19 | CC(C)NCCNC(=O)C(c1ccccc1)N1CC2(CCN(c3ncnc4sc(CC(F)(F)F)cc34)C2)C1 (centres unmarked) [Compound 74] | 2 | 6.1 | 0.12 | –
20 | Cn1cc2c(n1)CCCC2N1CC2(CCN(c3ncnc4sc(CC(F)(F)F)cc34)C2)C1 (centres unmarked) [Compound 133] | 2.1 | > 15 | 0.12 | –
21 | Cn1cc(C(CN)N2CC3(CCN(c4ncnc5sc(CC(F)(F)F)cc45)C3)C2)cn1 (centres unmarked) [Compound 195] | – | – | 1.07 | –
22 | CC(c1cnn(C)c1)N1CC2(CCN(c3ncnc4sc(CC(F)(F)F)cc34)C2)C1 (centres unmarked) [Compound 197] | 7.3 | > 15 | 0.3 | –
23 | CCN1CC(C(C(C)C)N2CC3(CCN(c4ncnc5sc(CC(F)(F)F)cc45)C3)C2)C1 (centres unmarked) [Compound 303] | 0.32 | 1.02 | – | –

Continued, in another order:

Row | IC50 (MV-4-11; [1]) [µM] | IC50 (MOLM14; [2]) [µM] | IC50 (menin; [3]) [µM] | SMILES | other results
24 | 1.16 | 6.7 | – | Cn1cc(CN2CC[C@@]3(CCN(c4ncnc5sc(CC(F)(F)F)cc45)C3)C2)cn1 (single isomer, unassigned) [Compound 295] | –
25 | – | – | 0.76 | FC(F)(F)Cc1cc2c(N3CCC4(CN(Cc5cncc(Cl)n5)C4)C3)ncnc2s1 [Compound 11] | –
26 | – | – | 0.81 | Cc1nc(N2CCCC3(CCN(Cc4ccccc4)C3)C2)c2cc(CC(F)(F)F)sc2n1 (centres unmarked) [Compound 19] | –
27 | 3.8 | 7.2 | 0.31 | FC(F)(F)Cc1cc2c(N3CCC4(CN(Cc5ccc[nH]5)C4)C3)ncnc2s1 [Compound 25] | –
28 | – | – | 0.99 | Cn1ccc(CN2CC3(CCN(c4ncnc5sc(CC(F)(F)F)cc45)C3)C2)n1 [Compound 35] | –
29 | – | – | 0.4 | CC(C)n1cc(CN2CC3(CCN(c4ncnc5sc(CC(F)(F)F)cc45)C3)C2)cn1 [Compound 36] | –
30 | – | – | 0.84 | FC(F)(F)Cc1cc2c(N3CC4(CN(Cc5cn[nH]c5)C4)C3)ncnc2s1 [Compound 40] | –
31 | – | – | 0.63 | FC(F)(F)Cc1cc2c(N3CC4(CN(Cc5cc[nH]n5)C4)C3)ncnc2s1 [Compound 41] | –
32 | 4.2 | 8.6 | – | OCc1ccccc1CN1CC2(CCN(c3ncnc4sc(CC(F)(F)F)cc34)C2)C1 [Compound 57] | –
33 | – | – | 2.36 | O=C(NCCO)C(c1ccccc1)N1CC2(CCN(c3ncnc4sc(CC(F)(F)F)cc34)C2)C1 (centres unmarked) [Compound 75] | –
34 | 1.3 | 10.5 | 0.045 | O=C([C@@H]1C[C@@H](F)CN1)N1CC2(C1)CN(c1ncnc3sc(CC(F)(F)F)cc13)C2 [Compound 89] | –
35 | 11.1 | > 15 | 0.11 | O=C([C@@H]1CC(F)(F)CN1)N1CC2(C1)CN(c1ncnc3sc(CC(F)(F)F)cc13)C2 [Compound 90] | –
36 | 1.7 | 7.3 | – | CC(C1CCOCC1)N1CC2(CCN(c3ncnc4sc(CC(F)(F)F)cc34)C2)C1 (centres unmarked) [Compound 145] | –
37 | 12.7 | > 15 | – | Cn1cc([C@@H](C2CCNCC2)N2CC3(CCN(c4ncnc5sc(CC(F)(F)F)cc45)C3)C2)cn1 [Compound 201] | –
